From patent US8877816B2, “4-(or 5-) substituted catechol derivatives” (Decode Genetics EHF, priority 2007, dated 2014)

Experiments:
PDE4 h4B1 = PDE4 h4B1 (Homo sapiens, UniProt Q07343); experiment: In-vitro real-time enzyme-coupled spectrophotometric assay for PDE4 enzymes (h4B1); format: biochemical; conditions: PDE4 isoform h4B1; enzyme-coupled NADH assay, absorbance at 340 nm
Protocol: (§1) In-vitro assay for PDE4 enzymes. The in-vitro activity of PDE4 enzymes and the in-vitro potency of therapeutic agents described in the present invention was measured using a real-time, enzyme-coupled spectrophotometric assay. By using three different coupling enzymes, the product of the PDE4 reaction is coupled to the oxidation of the reduced form β-nicotinamide adenine dinucleotide (NADH), which dissipation can be monitored spectrophotmetrically at […].
(§2) Assay description. Buffer A containing 50 mM Tris, pH 8.0, 16 mM MgCl2 and 80 mM KCl is prepared and stored at room temperature. Buffer B containing 50 mM Tris, pH 8.0 is prepared and stored at room temperature. Stock solutions of the following reagents are prepared in Buffer B and stored at −20° C.: Adenosine-5′-triphosphate (ATP), cyclic adenosine-5′-monophosphate (cAMP), phosphoenolpyruvate (PEP) and NADH. An assay mix is prepared by mixing Buffer A, […] (TCEP), ATP, PEP, NADH, myokinase (MK), pyruvate kinase (PK), lactate dehydroganese (LDH) and PDE4 to a final volume of 20 mL, which is enough for a single 96-well assay plate. Assay mix (180 μL) and test article (10 μL) in 1:1 DMSO/H2O mixture is pre-incubated at room temperature for 10 min. The enzymatic reaction is initiated by addition of cAMP (10 μL). Final concentration of all components in the assay (200 μL/well) are as follows: 10 mM MgCl2, 50 mM KCl, 5 mM TCEP, 2.5% DMSO, 0.4 mM NADH, 1 mM PEP, 0.04 mM ATP, 5 units MK, 1 unit PK, 1 unit LDH and appropriate amount of PDE4. Reaction progress curves are monitored in a plate reader capable of measuring light absorbance at 340 nm. A decrease in light absorbance at 340 nm is due to oxidation of NADH. Positive controls containing no test article and negative controls containing no test article and no cAMP are included on every assay plate. Reaction rates are determined from the slopes of the linear portions of the progress curves. All data are percent normalized with respect to controls and presented as percent inhibition.

[1] = test system: leukotriene E4 (LTE4) in human whole blood after Sephadex stimulation; experiment: Ex-vivo assay: Sephadex bead stimulated LTE4 production in human whole blood; format: cell-based; conditions: 1.5 h; heparinized human whole blood, Sephadex G-15 beads, 37° C. 90 min, LTE4 by immunoassay; read-out: IC50 (inhibition of LTE4 production)
Protocol: The activity of PDE4 inhibitors described in the present invention was also measured using in an ex-vivo assay measuring leukotriene E4 (LTE4) in human whole blood after Sephadex stimulation. […] For each sample, 356 μl of heparinized human whole blood (Vacutainer tube #6480) is added to wells of a 96 well plate. Then, 4 μl of a series of compound dilutions (in DMSO) are added in triplicates, suspension mixed and allowed to incubate at 37° C. for 15 min with gentle shaking. After that, blood samples are stimulated by adding 40 μL of Sephadex G-15 beads (Sigma-Aldrich, Sweden). The beads are predissolved in PBS (0.16 g/mL PBS). After mixing, the suspension is incubated at 37° C. for 90 min. Then, 8 μL of 15% EDTA/PBS is added to each sample, mixed and plate centrifuged for 5 min at 115×g at 21° C. and supernatants taken. In each plate, 10 positive controls and 10 negative controls are used, containing DMSO instead of compound solution. The positive controls are stimulated with Sephadex as described for the samples, and in the negative controls (unstimulated), Sephadex solution is replaced by PBS. LTE4 levels in the resulting plasma samples are determined using a commercial enzyme-linked immunoassay (Cayman Chemical Company, Ann Arbor, Mich.) according to the manufacturer's instructions. […]

PDE4 h4D7 = PDE4 h4D7 (Homo sapiens, UniProt Q08499); experiment: In-vitro real-time enzyme-coupled spectrophotometric assay for PDE4 enzymes (h4D7); format: biochemical; conditions: PDE4 isoform h4D7; enzyme-coupled NADH assay, absorbance at 340 nm
Chain of PDE4 h4D7 (Q08499 1-748 isoform Q08499-11): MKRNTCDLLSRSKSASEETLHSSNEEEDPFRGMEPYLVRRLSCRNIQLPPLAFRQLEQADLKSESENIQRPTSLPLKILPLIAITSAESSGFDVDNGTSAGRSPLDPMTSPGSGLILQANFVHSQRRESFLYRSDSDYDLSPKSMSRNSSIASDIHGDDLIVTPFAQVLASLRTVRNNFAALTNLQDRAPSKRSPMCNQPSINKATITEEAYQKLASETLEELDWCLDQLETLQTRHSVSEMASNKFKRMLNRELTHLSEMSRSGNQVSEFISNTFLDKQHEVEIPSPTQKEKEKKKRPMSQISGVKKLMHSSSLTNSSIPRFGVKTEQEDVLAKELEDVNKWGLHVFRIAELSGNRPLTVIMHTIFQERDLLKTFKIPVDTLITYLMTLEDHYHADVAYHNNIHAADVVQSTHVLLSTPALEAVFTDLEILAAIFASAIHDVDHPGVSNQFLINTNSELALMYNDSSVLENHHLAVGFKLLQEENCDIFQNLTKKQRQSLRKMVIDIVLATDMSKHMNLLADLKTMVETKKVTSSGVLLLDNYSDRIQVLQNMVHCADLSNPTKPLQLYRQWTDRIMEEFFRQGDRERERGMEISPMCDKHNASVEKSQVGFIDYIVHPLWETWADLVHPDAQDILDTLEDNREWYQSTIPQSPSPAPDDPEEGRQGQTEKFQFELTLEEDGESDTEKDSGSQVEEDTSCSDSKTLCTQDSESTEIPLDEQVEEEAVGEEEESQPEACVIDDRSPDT
Protocol: as §1, §2

Chain of PDE4 h4B1 (Q07343 whole entry, canonical isoform): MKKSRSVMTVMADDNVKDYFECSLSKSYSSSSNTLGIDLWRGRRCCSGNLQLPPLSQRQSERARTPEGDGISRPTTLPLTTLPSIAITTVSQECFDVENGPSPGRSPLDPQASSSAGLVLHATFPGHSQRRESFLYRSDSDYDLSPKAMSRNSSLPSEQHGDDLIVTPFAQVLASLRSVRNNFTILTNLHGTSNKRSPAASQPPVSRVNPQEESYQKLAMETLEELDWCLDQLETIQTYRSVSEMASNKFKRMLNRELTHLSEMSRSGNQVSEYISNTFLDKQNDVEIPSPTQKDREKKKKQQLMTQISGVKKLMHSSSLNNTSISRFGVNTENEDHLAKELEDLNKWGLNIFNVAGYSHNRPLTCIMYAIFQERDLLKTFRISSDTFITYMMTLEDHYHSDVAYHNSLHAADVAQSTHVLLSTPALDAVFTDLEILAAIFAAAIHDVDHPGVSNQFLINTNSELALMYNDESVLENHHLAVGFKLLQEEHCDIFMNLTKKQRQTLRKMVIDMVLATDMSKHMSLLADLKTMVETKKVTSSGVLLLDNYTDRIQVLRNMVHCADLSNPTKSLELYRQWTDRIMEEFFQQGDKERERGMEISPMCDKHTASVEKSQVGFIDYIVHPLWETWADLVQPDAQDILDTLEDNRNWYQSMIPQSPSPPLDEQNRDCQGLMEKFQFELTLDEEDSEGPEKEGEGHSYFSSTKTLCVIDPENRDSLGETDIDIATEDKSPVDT

Row | SMILES | IC50 (PDE4 h4B1) [µM] | IC50 [1] [µM] | IC50 (PDE4 h4D7) [µM]
1 | COc1ccc(Cc2ccc(F)cc2)c(F)c1Oc1cccc([N+](=O)[O-])c1 [Example P-01, 2-Fluoro-1-(4-fluoro-benzyl)-4-methoxy-3-(3-nitro-phenoxy)-benzene] | > 21 | < 1 | < 1
2 | COc1ccc(Cc2ccc(F)cc2)c(F)c1Oc1cccc(N)c1 [Example P-02, 3-[2-Fluoro-3-(4-fluoro-benzyl)-6-methoxy-phenoxy]-phenylamine] | > 21 | – | > 21
3 | COc1ccc(Cc2ccc(F)cc2)c(F)c1Oc1cccc(Cl)c1 [Example P-03, 2-(3-Chloro-phenoxy)-3-fluoro-4-(4-fluoro-benzyl)-1-methoxy-benzene] | 1 to 10 | – | < 1
4 | COc1ccc(Cc2ccc(NS(C)(=O)=O)cc2)cc1Oc1ccccc1 [Example P-04, N-[4-(4-Methoxy-3-phenoxy-benzyl)-phenyl]-methanesulfonamide] | > 21 | – | > 21
5 | COc1ccc(Cc2ccc(N)nc2)cc1Oc1cccc(Cl)c1 [Example P-05, 5-[3-(3-Chloro-phenoxy)-4-methoxy-benzyl]-pyridin-2-ylamine] | 11 to 20 | – | 1 to 10
6 | COc1ccc(Cc2ccc(NC(N)=O)nc2)cc1Oc1cccc(Cl)c1 [Example P-06, {5-[3-(3-Chloro-phenoxy)-4-methoxy-benzyl]-pyridin-2-yl}-urea] | 1 to 10 | – | 1 to 10
7 | COc1ccc(Cc2ccc(N)cc2)cc1Oc1cccc(Cl)c1 [Example P-07, 4-[3-(3-Chloro-phenoxy)-4-methoxy-benzyl]-phenylamine] | 1 to 10 | – | 1 to 10
8 | COc1ccc(Cc2ccc(O)cc2)cc1Oc1cccc(Cl)c1 [Example P-08, 4-[3-(3-chloro-phenoxy)-4-methoxy-benzyl]-phenol] | > 21 | – | 1 to 10
9 | COc1ccc(Cc2ccc(NS(C)(=O)=O)nc2)cc1Oc1cccc(Cl)c1 [Example P-09, N-{5-[3-(3-Chloro-phenoxy)-4-methoxy-benzyl]-pyridin-2-yl}-methanesulfonamide] | > 21 | – | 1 to 10
10 | COc1ccc(Cc2ccc(NC(C)=O)cc2)c(F)c1Oc1ccc(F)cc1 [Example P-10, N-{4-[2-Fluoro-3-(4-fluoro-phenoxy)-4-methoxy-benzyl]-phenyl}-acetamide] | > 21 | – | 11 to 20
11 | COc1ccc(Cc2ccc(NC(N)=O)cc2)c(F)c1Oc1ccc(F)cc1 [Example P-11, {4-[2-Fluoro-3-(4-fluoro-phenoxy)-4-methoxy-benzyl]-phenyl}-urea] | 1 to 10 | – | < 1
12 | COc1ccc(Cc2ccc(NC(N)=O)cc2)c(F)c1Oc1ccccn1 [Example P-12] | > 21 | – | < 1
